Values of other authors as cited in patent US20070225210A1, “Therapeutic vaccine compositions for the treatment of type 1 diabetes” (priority 2003, published 2007).

What was measured:
insulin = conditions: aqueous formulations, administered subcutaneously, NOD mice
[1] = tested on: individuals with, or at risk of, type 1 diabetes; conditions: repeat administration of low doses

Substance | immune response to insulin (insulin) | prevention of the onset of diabetes (NOD mice; aqueous formulations, administered subcutaneously) | protection from the onset of diabetes (NOD mice; immunization) | protection against diabetes (NOD mice; immunization, administered intranasally) | symptoms of diabetes and insulin-dependency of the patient [1]
SHLVEALYLVCGERG (Insulin B chain analog) [insulin B chain 9-23, 9-23 fragment of the native insulin B chain] | can induce an immune response to insulin | can prevent the onset of diabetes | protect from the onset of diabetes | partial protection against diabetes | –
insulin B chain: native human insulin B chain peptide with cysteinyl residues at positions 7 and 19 | – | – | protect from the onset of diabetes | – | can prevent or reduce the symptoms of diabetes and the insulin-dependency of the patient
